The experiment has as its system spliced XBP1. The experiment is described as follows: Spliced XBP1 mRNA measurement test (RT-PCR, tunicamycin-induced ER stress in MCF-7 cells). Type of experiment: cell-based. The following applies: Homo sapiens, MCF7, compound pre-treated for 1 hour, then 2 µg/mL tunicamycin for 6 or 24 hours, spliced XBP1 corrected by total XBP1. As to the method: With respect to these synthetic compounds, reverse transcription polymerase chain reaction (RT-PCR) experiments were conducted on MCF-7 cancer cells to confirm the effect thereof on the mRNA and protein amounts of spliced XBP1, which is the target of IRE endonuclease. A reverse transcription polymerase chain reaction is a test method in which RNA is extracted from cells, reverse transcriptase is used to make cDNA, and relative mRNA expression level is measured through a polymerase chain reaction.
Briefly, MCF-7 cells were seeded in a 12-well plate and cultured in an incubator including 5% CO2 for one day. On the next day, compounds, which were 10-fold serially diluted from 10,000 nM, were pre-treated for 1 hour, and then, treated with 2 µg/mL tunicamycin for 6 or 24 hours to induce endoplasmic reticulum stress, followed by cell lysis to obtain RNA. RNA was subjected to the procedure of RNeasy Kits (Qiagen, 74106), and 5 µg of RNA sample was dissolved in a sample including reverse transcriptase and dNTP, and reverse transcription reaction was performed with a thermal cycler. The amount of mRNA of each of spliced XBP1 and total XBP1 was measured by a polymerase chain reaction through real time PCR by mixing each cDNA sample with a PCR reaction mixture including a primer pair capable of binding specifically to each target and SYBR green dye. The expression level of spliced XBP1 was corrected by the total expression level of XBP1, and the relative expression levels of spliced XBP1 between samples were compared and analyzed.
Broadly, the IC50 is the midpoint of a concentration-inhibition curve. As for `Cc1c(CC(=O)N2CCOCC2)c(=O)oc2c(C=O)c(O)c3c(c12)CCO3` [Example 1, 4-hydroxy-9-methyl-8-(2-morpholino-2-oxoethyl)-7-oxo-1,7-dihydro-2H-furo[3,2-f]chromene-5-carbaldehyde], the IC50 was less than 100 nM.

Consider `Cc1c(CC(=O)N2CCOCC2)c(=O)oc2c(C=O)c(O)c3c(c12)OCO3` [Example 2, 4-hydroxy-9-methyl-8-(2-morpholino-2-oxoethyl)-7-oxo-7H-[1,3]dioxolo[4,5-f]chromene-5-carbaldehyde], for which the IC50 lay in the range of 100 to 200 nM. As for `Cc1c(CC(=O)N2CCOCC2)c(=O)oc2c(C=O)c(O)c3c(c12)CCCO3` [Example 3, 6-hydroxy-1-methyl-2-(2-morpholino-2-oxoethyl)-3-oxo-3,8,9,10-tetrahydropyrano[3,2-f]chromene-5-carbaldehyde], the IC50 is less than 100 nM. In the case of `Cc1c(CC(=O)N2CCC(C)CC2)c(=O)oc2c(C=O)c(O)c3c(c12)CCCO3` [Example 4, 6-hydroxy-1-methyl-2-(2-(4-methylpiperidin-1-yl)-2-oxoethyl)-3-oxo-3,8,9,10-tetrahydropyrano[3,2-f]chromene-5-carbaldehyde] it was not below 200 nM; in that of `Cc1c(CC(=O)N2CCCC2)c(=O)oc2c(C=O)c(O)c3c(c12)CCCO3` [Example 5, 6-hydroxy-1-methyl-3-oxo-2-(2-oxo-2-(pyrrolidin-1-yl)ethyl)-3,8,9,10-tetrahydropyrano[3,2-f]chromene-5-carbaldehyde], less than 100 nM; in that of `Cc1c(CC(=O)N2CCN(C)CC2)c(=O)oc2c(C=O)c(O)c3c(c12)CCCO3` [Example 6, 6-hydroxy-1-methyl-2-(2-(4-methylpiperazin-1-yl)-2-oxoethyl)-3-oxo-3,8,9,10-tetrahydropyrano[3,2-f]chromene-5-carbaldehyde], less than 100 nM. Consider `Cc1c(CC(=O)N2CCN(C(C)C)CC2)c(=O)oc2c(C=O)c(O)c3c(c12)CCCO3` [Example 7, 6-hydroxy-2-(2-(4-isopropylpiperazin-1-yl)-2-oxoethyl)-1-methyl-3-oxo-3,8,9,10-tetrahydropyrano[3,2-f]chromene-5-carbaldehyde], for which the IC50 was in the range of 100 to 200 nM.

For `CCNC(=O)Cc1c(C)c2c3c(c(O)c(C=O)c2oc1=O)OCC3` [Example 8, N-ethyl-2-(5-formyl-4-hydroxy-9-methyl-7-oxo-1,7-dihydro-2H-furo[3,2-f]chromen-8-yl)acetamide], the IC50 is less than 100 nM. The result for `CCN(CC)C(=O)Cc1c(C)c2c3c(c(O)c(C=O)c2oc1=O)OCC3` [Example 9, N,N-diethyl-2-(5-formyl-4-hydroxy-9-methyl-7-oxo-1,7-dihydro-2H-furo[3,2-f]chromen-8-yl)acetamide] reads less than 100 nM; that for `Cc1c(CC(=O)N2CCC(F)(F)C2)c(=O)oc2c(C=O)c(O)c3c(c12)CCCO3` [Example 10, 2-(2-(3,3-difluoropyrrolidin-1-yl)-2-oxoethyl)-6-hydroxy-1-methyl-3-oxo-3,8,9,10-tetrahydropyrano[3,2-f]chromene-5-carbaldehyde], less than 100 nM; that for `Cc1c(CC(=O)N2CCC(C)C2)c(=O)oc2c(C=O)c(O)c3c(c12)CCCO3` (stereo not drawn) [Example 11, 6-hydroxy-1-methyl-2-(2-(3-methylpyrrolidin-1-yl)-2-oxoethyl)-3-oxo-3,8,9,10-tetrahydropyrano[3,2-f]chromene-5-carbaldehyde], less than 100 nM.

With `Cc1c(CC(=O)N2CCC(C)(C)C2)c(=O)oc2c(C=O)c(O)c3c(c12)CCCO3` [Example 12, 2-(2-(3,3-dimethylpyrrolidin-1-yl)-2-oxoethyl)-6-hydroxy-1-methyl-3-oxo-3,8,9,10-tetrahydropyrano[3,2-f]chromene-5-carbaldehyde], the IC50 fell in the range of 100 to 200 nM. On to `Cc1c(CC(=O)N2CCC2)c(=O)oc2c(C=O)c(O)c3c(c12)CCCO3` [Example 13, 2-(2-(azetidin-1-yl)-2-oxoethyl)-6-hydroxy-1-methyl-3-oxo-3,8,9,10-tetrahydropyrano[3,2-f]chromene-5-carbaldehyde], for which the IC50 was 100 to 200 nM. The result for `COC1CCN(C(=O)Cc2c(C)c3c4c(c(O)c(C=O)c3oc2=O)OCCC4)C1` (stereo not drawn) [Example 14, 6-hydroxy-2-(2-(3-methoxypyrrolidin-1-yl)-2-oxoethyl)-1-methyl-3-oxo-3,8,9,10-tetrahydropyrano[3,2-f]chromene-5-carbaldehyde] reads 100 to 200 nM; that for `COC1CN(C(=O)Cc2c(C)c3c4c(c(O)c(C=O)c3oc2=O)OCCC4)C1` [Example 15, 6-hydroxy-2-(2-(3-methoxyazetidin-1-yl)-2-oxoethyl)-1-methyl-3-oxo-3,8,9,10-tetrahydropyrano[3,2-f]chromene-5-carbaldehyde], 100 to 200 nM; that for `Cc1c(CC(=O)N2CCC(F)C2)c(=O)oc2c(C=O)c(O)c3c(c12)CCCO3` (stereo not drawn) [Example 16, 2-(2-(3-fluoropyrrolidin-1-yl)-2-oxoethyl)-6-hydroxy-1-methyl-3-oxo-3,8,9,10-tetrahydropyrano[3,2-f]chromene-5-carbaldehyde], not below 200 nM. The result for `CCNC(=O)Cc1c(C)c2c3c(c(O)c(C=O)c2oc1=O)OCCC3` [Example 17, N-ethyl-2-(5-formyl-6-hydroxy-1-methyl-3-oxo-3,8,9,10-tetrahydropyrano[3,2-f]chromen-2-yl)acetamide] reads less than 100 nM; that for `CCc1c(CC(=O)N2CCCC2)c(=O)oc2c(C=O)c(O)c3c(c12)CCCO3` [Example 18, 1-ethyl-6-hydroxy-3-oxo-2-(2-oxo-2-(pyrrolidin-1-yl)ethyl)-3,8,9,10-tetrahydropyrano[3,2-f]chromene-5-carbaldehyde], not below 200 nM. The result for `Cc1c(CC(=O)N2CC(F)C2)c(=O)oc2c(C=O)c(O)c3c(c12)CCCO3` [Example 19, 2-(2-(3-fluoroazetidin-1-yl)-2-oxoethyl)-6-hydroxy-1-methyl-3-oxo-3,8,9,10-tetrahydropyrano[3,2-f]chromene-5-carbaldehyde] reads 100 to 200 nM. As to `Cc1c(CC(=O)N2CCC3(CC3)C2)c(=O)oc2c(C=O)c(O)c3c(c12)CCCO3` [Example 20, 6-hydroxy-1-methyl-3-oxo-2-(2-oxo-2-(5-azaspiro[2.4]heptan-5-yl)ethyl)-3,8,9,10-tetrahydropyrano[3,2-f]chromene-5-carbaldehyde], the IC50 lay in the range of 100 to 200 nM. In the case of `Cc1c(CC(=O)N2CCCCC2)c(=O)oc2c(C=O)c(O)c3c(c12)CCCO3` [Example 21, 6-hydroxy-1-methyl-3-oxo-2-(2-oxo-2-(piperidin-1-yl)ethyl)-3,8,9,10-tetrahydropyrano[3,2-f]chromene-5-carbaldehyde] it was not below 200 nM; in that of `Cc1c(CC(N)=O)c(=O)oc2c(C=O)c(O)c3c(c12)CCCO3` [Example 22, 2-(5-formyl-6-hydroxy-1-methyl-3-oxo-3,8,9,10-tetrahydropyrano[3,2-f]chromen-2-yl)acetamide], not below 200 nM. With `CC(C)c1c(CC(=O)N2CCCC2)c(=O)oc2c(C=O)c(O)c3c(c12)CCCO3` [Example 23, 6-hydroxy-1-isopropyl-3-oxo-2-(2-oxo-2-(pyrrolidin-1-yl)ethyl)-3,8,9,10-tetrahydropyrano[3,2-f]chromene-5-carbaldehyde], the IC50 lay within 100 to 200 nM.

As for `COCCNC(=O)Cc1c(C)c2c3c(c(O)c(C=O)c2oc1=O)OCCC3` [Example 24, 2-(5-formyl-6-hydroxy-1-methyl-3-oxo-3,8,9,10-tetrahydropyrano[3,2-f]chromen-2-yl)-N-(2-methoxyethyl)acetamide], the IC50 is less than 100 nM.

Values taken from EP4578861A1, “NOVEL TRICYCLIC HETEROCYCLIC CARBALDEHYDE COMPOUND AND PHARMACEUTICAL COMPOSITION, CONTAINING SAME, FOR IRE1ALPHA INHIBITION” (Hanmi Pharm. Co., Ltd., priority 2022, dated 2024).
